Laboratory results as given in ChEMBL document CHEMBL4739710, “Tetrahydropyridopyrazines as modulators of GPR6” (2020).

Target: G-protein coupled receptor 6 (Homo sapiens, UniProt P46095)
Experiment: Modulation of GPR6 (unknown origin) expressed in CHO-K1 cells assessed as inhibition of constitutive cAMP activity by HTRF assay
Type: functional, cell-based

Sequence of G-protein coupled receptor 6 (P46095 whole entry): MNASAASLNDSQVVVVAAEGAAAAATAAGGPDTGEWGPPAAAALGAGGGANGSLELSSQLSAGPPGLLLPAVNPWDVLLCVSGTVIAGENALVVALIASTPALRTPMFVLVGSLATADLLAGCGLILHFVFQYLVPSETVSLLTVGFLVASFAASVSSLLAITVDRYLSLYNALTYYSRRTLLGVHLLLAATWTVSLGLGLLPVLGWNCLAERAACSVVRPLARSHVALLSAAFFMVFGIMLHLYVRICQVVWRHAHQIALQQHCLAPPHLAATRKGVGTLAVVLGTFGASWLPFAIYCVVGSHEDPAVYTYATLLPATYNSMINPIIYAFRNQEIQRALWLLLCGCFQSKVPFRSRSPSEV

- EC50: 47.9 nM
Structure (SMILES): Cc1cc2nc(N[C@@H]3CCOC3)c(N3CCN(Cc4ccc(F)cc4F)CC3)nc2cn1
